From patent publication US20090233966A1, “Analogues of the Azinomycins as Anti-Tumour Agents and as Prodrugs” (School of Pharmacy, University of London, priority 2005, published 2009)
Where two headings read alike, the source gives them in different places.

What was measured:
[1] = system: wild type CHO cells (absent in CYP3A4); assay: Cytotoxicity on wild type CHO cells; format: cell-based; conditions: FIG. 2(b)
[2] = system: HoeR (Hoechst415 resistant version of U2-OS); assay: Cytotoxicity in HoeR cell line; format: cell-based, human; conditions: for cytotoxicity (in words): initial cytotoxicity studies; for IC50: read-out: IC50 (nM) of compound
Description: (§1) Initial cytotoxicity studies were in the performed U2-OS and HoeR cell lines. The U2-OS is a human osteosarcoma cell line and HoeR is a DNA minor groove binder-resistant variant of this. Both are available from the American Type Culture Collection (ATCC), Dr. Raymon H. 10801 University Boulevard, Manassas, Va., 20110-2209, USA.

[3] = system: U2-OS human osteosarcoma cell line; assay: Cytotoxicity in U2-OS cell line; format: cell-based; conditions: for cytotoxicity (in words): initial cytotoxicity studies; for IC50: read-out: IC50 (nM) of compound
Description: as §1

CYP3A4 CHO cells = assay: Cytotoxicity on CHO cells transfected with CYP3A4; format: cell-based; conditions: FIG. 2(b)
NCl 60 cell panel = assay: NCI 60 cell line panel antitumour activity (whole panel); format: cell-based, human; conditions: wide range of human tumour cell lines
Description: Examples 6 and 7 make use of the NCl 60 cell panel. This is an in vitro cell line screening project providing direct support to the National Cancer Institute's USA Developmental Therapeutic Programme for anti cancer discovery. The methodolgy for the cell line's operation is described by Boyd et al in Drug Development Research 1995, 34, 91-109.

Row | SMILES | cytotoxicity (in words) [1] | cytotoxicity (in words) [2] | IC50 [2] [nM] | cytotoxicity (in words) [3] | IC50 [3] [nM] | cytotoxicity (in words) (CYP3A4 CHO cells) | IC50 ([2]; Homo sapiens, U2OS) [nM] | IC50 ([3]; Homo sapiens, U2OS) [nM] | antitumour activity in the NCl 60 cell line panel (in words) (NCl 60 cell panel)
1 | COc1cc(C(=O)OC(C(N)=O)[C@]2(C)CO2)c2ccccc2c1 (stereo partly drawn) [(2S, 3S)-1] | high cytotoxicity | good activity | 14 | good activity | 15 | high cytotoxicity |  |  | 
2 | COc1cc(C(=O)OC(C(N)=O)[C@]2(C)CO2)c2ccccc2c1 (stereo partly drawn) [(2R, 3S)-1] |  | good activity | 45 | good activity | 40 |  |  |  | 
3 | C=C(C)[C@@H](OC(=O)c1cc(OC)cc2c(C)cccc12)C(N)=O [(2R)-2] |  | not cytotoxic |  | not cytotoxic |  |  | > 10000 | > 10000 | 
4 | COc1cc(C(=O)O[C@H](C(=O)NCCN2CCCC(Cl)C2)C2(C)CO2)c2cccc(C)c2c1 (some centres unmarked) |  |  |  |  |  |  |  |  | excellent anti-tumour activity
5 | COc1cc(C(=O)OC(C(N)=O)[C@]2(C)CO2)c2ccccc2c1 (stereo partly drawn) [(2S, 3R)-1] |  | good activity | 121 | good activity | 120 |  |  |  | 
6 | COc1cc(C(=O)OC(C(N)=O)[C@]2(C)CO2)c2ccccc2c1 (stereo partly drawn) [(2R, 3R)-1] |  | good activity | 40 | good activity | 40 |  |  |  | 
